The record followed here is PMC4780864, “Family-wide Structural Analysis of Human Numb-Associated Protein Kinases” (Structure(London, England:1993), 2016).

Common to all, as to assay: biochemical
For one assay, the target named is T1, BIKE (Homo sapiens, UniProt Q9NSY1).
T1 construct: gene BMP2K; catalytic domain-containing construct
On the set-up: Thermal shift assay (DSF, SYPRO Orange), 2 uM kinase domain, mean delta Tm of triplicates versus DMSO. The settings on record: read-out: BIKE. The procedure:
(§1) All measurements were performed in triplicate and mean values were reported for all compounds (Table S1). […] However, NAKs are often omitted from selectivity panels, including commercial screens.

The next assay concerns the target T2, GAK (Homo sapiens, UniProt O14976).
T2 construct: catalytic domain-containing construct
T2 sequence (O14976 1-1311): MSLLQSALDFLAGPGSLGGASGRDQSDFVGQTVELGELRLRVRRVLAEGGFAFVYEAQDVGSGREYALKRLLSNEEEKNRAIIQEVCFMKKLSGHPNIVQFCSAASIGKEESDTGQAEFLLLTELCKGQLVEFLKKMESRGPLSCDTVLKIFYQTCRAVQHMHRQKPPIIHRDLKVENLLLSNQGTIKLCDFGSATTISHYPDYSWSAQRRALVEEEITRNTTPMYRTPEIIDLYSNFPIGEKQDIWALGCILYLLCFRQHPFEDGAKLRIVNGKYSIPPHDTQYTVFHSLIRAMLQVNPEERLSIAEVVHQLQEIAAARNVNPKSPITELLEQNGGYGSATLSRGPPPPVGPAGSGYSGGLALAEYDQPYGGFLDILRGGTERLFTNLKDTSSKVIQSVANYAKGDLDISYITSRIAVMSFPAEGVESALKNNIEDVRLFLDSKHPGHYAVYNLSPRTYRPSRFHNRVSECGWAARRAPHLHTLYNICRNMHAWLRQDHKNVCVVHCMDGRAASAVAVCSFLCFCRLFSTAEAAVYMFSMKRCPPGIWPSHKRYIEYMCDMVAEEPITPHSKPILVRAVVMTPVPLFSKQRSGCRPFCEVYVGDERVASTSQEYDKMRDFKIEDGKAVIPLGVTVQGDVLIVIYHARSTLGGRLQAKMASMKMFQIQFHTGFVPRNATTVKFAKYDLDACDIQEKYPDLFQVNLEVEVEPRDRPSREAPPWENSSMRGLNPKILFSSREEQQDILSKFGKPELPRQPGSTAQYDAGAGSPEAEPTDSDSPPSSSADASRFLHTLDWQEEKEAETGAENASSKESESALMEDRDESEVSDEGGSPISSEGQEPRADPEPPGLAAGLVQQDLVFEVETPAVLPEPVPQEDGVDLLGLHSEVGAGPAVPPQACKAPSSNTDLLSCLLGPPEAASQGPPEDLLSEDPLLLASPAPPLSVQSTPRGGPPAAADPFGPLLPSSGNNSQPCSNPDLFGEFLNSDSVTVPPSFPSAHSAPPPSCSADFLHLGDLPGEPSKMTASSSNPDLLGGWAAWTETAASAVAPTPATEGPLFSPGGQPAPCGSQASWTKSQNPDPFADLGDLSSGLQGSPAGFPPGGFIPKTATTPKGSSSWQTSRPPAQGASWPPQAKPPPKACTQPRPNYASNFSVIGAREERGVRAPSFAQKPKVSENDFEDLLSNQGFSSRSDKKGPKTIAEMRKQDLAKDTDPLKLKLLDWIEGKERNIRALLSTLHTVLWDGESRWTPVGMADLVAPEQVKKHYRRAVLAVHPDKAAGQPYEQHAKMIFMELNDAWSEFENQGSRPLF
On the set-up: Thermal shift assay (DSF, SYPRO Orange), 2 uM kinase domain, mean delta Tm of triplicates versus DMSO. The settings on record: for ΔTm at 12.5 µM: read-out: GAK. How it is done:
as §1

In another assay the target is T3, MPSK1 (Homo sapiens, UniProt O75716).
T3 construct: gene STK16; catalytic domain-containing construct
T3 sequence (O75716 whole entry, the tested form may be a part): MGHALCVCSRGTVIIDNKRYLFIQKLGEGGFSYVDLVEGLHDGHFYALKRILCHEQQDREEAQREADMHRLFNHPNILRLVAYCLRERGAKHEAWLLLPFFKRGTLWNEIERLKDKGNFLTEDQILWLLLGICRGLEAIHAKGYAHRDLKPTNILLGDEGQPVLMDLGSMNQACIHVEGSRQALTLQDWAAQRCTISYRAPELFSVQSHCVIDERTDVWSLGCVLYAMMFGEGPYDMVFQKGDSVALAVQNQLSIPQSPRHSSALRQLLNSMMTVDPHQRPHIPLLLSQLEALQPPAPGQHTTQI
On the set-up: Thermal shift assay (DSF, SYPRO Orange), 2 uM kinase domain, mean delta Tm of triplicates versus DMSO. The settings on record: for ΔTm at 12.5 µM: read-out: MPSK1. The procedure:
as §1

Another assay addresses AAK1 (Homo sapiens, UniProt Q2M2I8). Also noted: kinase domain; Thermal shift assay (DSF, SYPRO Orange), 2 uM kinase domain, mean delta Tm of triplicates versus DMSO. The settings on record: for ΔTm at 12.5 µM: read-out: AAK1. The procedure: as §1

Molecules are shown by their SMILES.

T1 sequence (Q9NSY1 whole entry, the tested form may be a part): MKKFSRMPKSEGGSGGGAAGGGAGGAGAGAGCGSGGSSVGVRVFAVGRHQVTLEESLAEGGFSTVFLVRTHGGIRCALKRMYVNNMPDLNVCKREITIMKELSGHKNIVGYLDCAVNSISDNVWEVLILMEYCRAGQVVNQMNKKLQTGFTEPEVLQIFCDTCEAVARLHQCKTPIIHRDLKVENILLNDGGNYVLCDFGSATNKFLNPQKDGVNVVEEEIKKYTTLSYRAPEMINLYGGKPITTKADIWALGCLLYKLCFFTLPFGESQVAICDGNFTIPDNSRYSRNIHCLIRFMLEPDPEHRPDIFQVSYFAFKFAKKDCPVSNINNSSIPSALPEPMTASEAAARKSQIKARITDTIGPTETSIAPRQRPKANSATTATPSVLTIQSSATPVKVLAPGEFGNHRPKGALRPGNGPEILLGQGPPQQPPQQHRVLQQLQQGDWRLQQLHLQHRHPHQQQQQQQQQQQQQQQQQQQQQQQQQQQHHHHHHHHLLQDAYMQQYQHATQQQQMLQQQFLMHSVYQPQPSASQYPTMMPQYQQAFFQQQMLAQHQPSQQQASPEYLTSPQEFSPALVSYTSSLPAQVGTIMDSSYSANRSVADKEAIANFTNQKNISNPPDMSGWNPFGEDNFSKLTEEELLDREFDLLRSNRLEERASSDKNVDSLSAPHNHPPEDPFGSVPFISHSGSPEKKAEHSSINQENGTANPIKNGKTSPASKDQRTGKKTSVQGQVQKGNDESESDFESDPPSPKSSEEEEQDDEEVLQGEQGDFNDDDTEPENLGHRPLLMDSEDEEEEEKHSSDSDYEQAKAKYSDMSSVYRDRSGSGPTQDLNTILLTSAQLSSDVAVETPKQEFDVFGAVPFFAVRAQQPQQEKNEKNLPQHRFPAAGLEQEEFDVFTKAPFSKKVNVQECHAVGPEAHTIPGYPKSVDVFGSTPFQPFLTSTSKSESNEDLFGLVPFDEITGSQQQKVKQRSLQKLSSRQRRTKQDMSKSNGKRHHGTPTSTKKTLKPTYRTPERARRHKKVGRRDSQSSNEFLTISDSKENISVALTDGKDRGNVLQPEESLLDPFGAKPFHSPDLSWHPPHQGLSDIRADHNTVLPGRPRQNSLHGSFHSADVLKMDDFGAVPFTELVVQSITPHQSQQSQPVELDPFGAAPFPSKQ
Sequence of AAK1 (Q2M2I8 27-365 limits assumed): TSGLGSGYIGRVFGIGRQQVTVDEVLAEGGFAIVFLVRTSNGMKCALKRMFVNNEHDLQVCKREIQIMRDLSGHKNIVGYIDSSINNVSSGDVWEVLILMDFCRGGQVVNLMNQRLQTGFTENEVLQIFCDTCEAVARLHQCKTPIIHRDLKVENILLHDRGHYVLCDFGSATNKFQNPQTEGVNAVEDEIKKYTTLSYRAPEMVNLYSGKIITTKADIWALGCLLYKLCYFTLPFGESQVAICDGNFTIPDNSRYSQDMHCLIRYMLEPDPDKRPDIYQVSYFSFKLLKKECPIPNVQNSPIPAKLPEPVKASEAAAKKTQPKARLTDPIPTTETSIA

With `COc1ccc(Cl)c(Nc2nc3ccccc3nc2NS(=O)(=O)c2cccc(NC(=O)C(C)(C)N)c2)c1` [Pilaralisib], the ΔTm at 12.5 µM at BIKE was 0.99 °C; on GAK, -0.55 °C; at MPSK1 it was 0.39 °C; at AAK1 it was 0.00667 °C.

As for `O=C(NC[C@H](O)CO)c1ccncc1Nc1ccc(I)cc1F` [Pimasertib], the ΔTm at 12.5 µM at BIKE is 0.36 °C; on GAK, -0.59 °C; at MPSK1, 0.313 °C; at AAK1, 0.0267 °C.

As to `Cc1ccc(C(=O)Nc2ccc(CN3CCN(C)CC3)c(C(F)(F)F)c2)cc1C#Cc1cnc2cccnn12` [Ponatinib], the ΔTm at 12.5 µM was 2.93 °C on BIKE, 13 °C at GAK, 2.24 °C on MPSK1 and 2.99 °C on AAK1.

Consider `CC(C)(C)c1cc(NC(=O)Nc2ccc(-c3cn4c(n3)sc3cc(OCCN5CCOCC5)ccc34)cc2)no1` [Quizartinib], for which the ΔTm at 12.5 µM stood at 0.54 °C at BIKE, 0.0333 °C on GAK, 0.333 °C on MPSK1 and 0.43 °C on AAK1.

For the compound `Cn1c(Nc2ccc(C(F)(F)F)cc2)nc2cc(Oc3ccnc(-c4ncc(C(F)(F)F)[nH]4)c3)ccc21` [RAF265], the ΔTm at 12.5 µM was found to be 1.07 °C at BIKE, 7.37 °C on GAK, 1.67 °C on MPSK1 and 1.45 °C at AAK1.

With `Cc1cnc(NC(=O)Nc2cc(Br)c(C)cc2OC[C@@H]2CNCCO2)cn1` [Rabusertib], the ΔTm at 12.5 µM at BIKE is 3.04 °C; on GAK it was -0.263 °C; at MPSK1, 2.49 °C; on AAK1 it was 1.55 °C.

Consider `CC(C)(C)Cn1c(N)nc2ccc(-c3[nH]c(C(C)(C)C)nc3-c3ccc(F)cc3)nc21` [Ralimetinib], for which the ΔTm at 12.5 µM on BIKE amounted to 1.12 °C; at GAK, 9.03 °C; on MPSK1, 1.32 °C; on AAK1, 0.397 °C.

For the compound `CNC(=O)c1cc(Oc2ccc(NC(=O)Nc3cc(C(C)(C)C)nn3-c3ccc4ncccc4c3)c(F)c2)ccn1` [Rebastinib], the ΔTm at 12.5 µM on BIKE was found to be 0.707 °C; on GAK, 9.94 °C; on MPSK1, 0.907 °C; on AAK1 it was 0.473 °C.

With `COc1cc(F)c(F)c(Nc2ccc(I)cc2F)c1NS(=O)(=O)C1(C[C@H](O)CO)CC1` [Refametinib], the ΔTm at 12.5 µM at BIKE was -0.02 °C; at GAK, -1.26 °C; at MPSK1, 0.663 °C; on AAK1, -0.0333 °C.

As to `CNC(=O)c1cc(Oc2ccc(NC(=O)Nc3ccc(Cl)c(C(F)(F)F)c3)c(F)c2)ccn1` [Regorafenib], the ΔTm at 12.5 µM at BIKE turned out to be 0.423 °C; on GAK it was 5.87 °C; at MPSK1 it was 0.88 °C; at AAK1, 1.02 °C.

As for `COc1cc(OC)c(/C=C/S(=O)(=O)Cc2ccc(OC)c(NCC(=O)O)c2)c(OC)c1` [Rigosertib], the ΔTm at 12.5 µM at BIKE was 0.203 °C; on GAK, -0.48 °C; on MPSK1, 0.583 °C; on AAK1, 0.19 °C.

With `CN(C)C[C@@H]1CCn2cc(c3ccccc32)C2=C(C(=O)NC2=O)c2cn(c3ccccc23)CCO1` [Ruboxistaurin], the ΔTm at 12.5 µM at BIKE was found to be 9.4 °C; at GAK, 1.03 °C; on MPSK1, 1.86 °C; on AAK1, 5.19 °C.

Take `N#CC[C@H](C1CCCC1)n1cc(-c2ncnc3[nH]ccc23)cn1` [Ruxolitinib]: the ΔTm at 12.5 µM turned out to be 8.65 °C on BIKE, 2.88 °C at GAK and 6.18 °C at AAK1. The MPSK1 at MPSK1 (12.5 µM) is 5.233 °C.

Take `O=C(Nc1ccc2[nH]nc(-c3ccncc3)c2c1)[C@@H]1CCN(CC(=O)N2CCN(c3ccc(-c4ncccn4)cc3)CC2)C1` [SCH772984]: the ΔTm at 12.5 µM stood at 0.9 °C at BIKE, 0.343 °C on GAK, 0.0567 °C at MPSK1 and 0.0767 °C at AAK1.

Consider `CN1CCC(CNc2ccc3ncc(-c4cccc(OC(F)(F)F)c4)n3n2)CC1` [SGI-1776], for which the ΔTm at 12.5 µM on BIKE came out at 10.2 °C; at GAK, 3.81 °C; on MPSK1 it was 3.24 °C; at AAK1 it was 6.74 °C.

Turning to `CC(C)(C)c1cnc(CSc2cnc(NC(=O)C3CCNCC3)s2)o1` [SNS-032], the ΔTm at 12.5 µM was 1.11 °C on BIKE, 0.0467 °C on GAK, 3.53 °C on MPSK1 and 0.69 °C at AAK1.

In the case of `Oc1c2ccccc2c2c3c(cccc13)N=N2` [SP600125], the ΔTm at 12.5 µM on BIKE is 14.2 °C; on GAK it was 0.24 °C; at MPSK1, 0.11 °C; on AAK1, 6.88 °C.

Take `CN1CCN(CCOc2cc(OC3CCOCC3)c3c(Nc4c(Cl)ccc5c4OCO5)ncnc3c2)CC1` [Saracatinib]: the ΔTm at 12.5 µM was 4.59 °C on BIKE, 7.95 °C at GAK, 0.66 °C at MPSK1 and 0.31 °C at AAK1.

For `CC[C@H](CO)Nc1nc(NCc2ccccc2)c2ncn(C(C)C)c2n1` [Seliciclib], the ΔTm at 12.5 µM on BIKE is 0.43 °C; on GAK, -0.34 °C; on MPSK1 it was 2.4 °C; on AAK1, 0.393 °C.

As to `Cn1cnc2c(F)c(Nc3ccc(Br)cc3Cl)c(C(=O)NOCCO)cc21` [Selumetinib], the ΔTm at 12.5 µM was 0.227 °C at BIKE, -0.847 °C at GAK, 0.797 °C at MPSK1 and 0.343 °C on AAK1.

Turning to `C=CCN(/C=C1/C(=O)O[C@H](COC)[C@@]2(C)C1=C(O)C(=O)C1=C2[C@H](OC(C)=O)C[C@]2(C)C(=O)CC[C@@H]12)CC=C` [Sonolisib], the ΔTm at 12.5 µM is -1.36 °C at BIKE, 0.82 °C on GAK, 0.147 °C on MPSK1 and -0.183 °C at AAK1.

As to `CNC(=O)c1cc(Oc2ccc(NC(=O)Nc3ccc(Cl)c(C(F)(F)F)c3)cc2)ccn1` [Sorafenib], the ΔTm at 12.5 µM was 0.73 °C at BIKE, 5.42 °C at GAK, 0.873 °C at MPSK1 and 1.03 °C at AAK1.

Turning to `CN1CCN(c2nc(C3=C(c4c[nH]c5ccccc45)C(=O)NC3=O)c3ccccc3n2)CC1` [Sotrastaurin], the ΔTm at 12.5 µM at BIKE came to 3.16 °C; at GAK, 0.62 °C; on MPSK1 it was 1.8 °C; at AAK1, 1.63 °C.

In the case of `CCN(CC)CCNC(=O)c1c(C)[nH]c(/C=C2\C(=O)Nc3ccc(F)cc32)c1C` [Sunitinib], the ΔTm at 12.5 µM at BIKE was 13.9 °C; on MPSK1, 6.79 °C. Further, on GAK (12.5 µM), the GAK came out at 4.647 °C. For the same compound, the AAK1 at AAK1 (12.5 µM) is 8.67 °C.

With `Cn1c(=O)c(F)c(Nc2ccc(I)cc2F)c2c(=O)n(C[C@@H](O)CO)cnc21` [TAK-733], the ΔTm at 12.5 µM was 0.177 °C on BIKE, -0.183 °C at GAK, 0.277 °C at MPSK1 and 0.0367 °C on AAK1.

For the compound `CCS(=O)(=O)c1cccc(-c2cc(C(=O)NC3CCN(C)CC3)c(C)c3[nH]c4ncc(C)cc4c23)c1` [TAK-901], the ΔTm at 12.5 µM at BIKE was determined as 12 °C; on GAK, 3.35 °C; on MPSK1, 10.7 °C; at AAK1 it was 5.22 °C.

Turning to `Cc1cc(C(C)Nc2ccccc2)c2nc(N3CCOCC3)cc(=O)n2c1` (stereo not drawn) [TGX-221], the ΔTm at 12.5 µM is 0.5 °C at BIKE, -0.347 °C at GAK, 1.43 °C at MPSK1 and 0.26 °C at AAK1.
